{"source": "patent US6231888A", "about": "“Local delivery of non steroidal anti inflammatory drugs (NSAIDS) to the colon as a treatment for colonic polyps” (Perio Products Ltd., priority 1998, dated 2001)", "origin": "cited, not measured here", "key": {"colorectal cancer": {"system": "colorectal cancer", "details": "chronic use"}, "colonic biopsies": {"system": "colonic biopsies", "details": "diclofenac-induced colitis"}, "[1]": {"system": "SW480 colon carcinoma cells"}, "[2]": {"system": "HT-29 colon adenocarcinoma cells", "details": "HT-29 cells"}, "colorectal mucosa": {"system": "colorectal mucosa", "details": "FAP patients"}, "[3]": {"system": "HT-29 colon adenocarcinoma cell line"}, "colonic polyps": {"system": "colonic polyps", "details": "daily dose of 300 mg, taken systemically"}, "[4]": {"system": "sporadic colorectal adenomas", "details": "300 mg or 150 mg daily for one year; polyps 4-12 mm"}}}
{"compound": "Cc1cnc(NC(=O)C2=C(O)c3ccccc3S(=O)(=O)N2C)s1", "note": "[Meloxicam]", "values": [{"measurement": "COX-2 inhibition", "setting": "COX-2", "result": "selective COX-2 inhibitor"}]}
{"compound": "CC(=O)Oc1ccccc1C(=O)O", "note": "[aspirin]", "values": [{"measurement": "Reduction in the incidence of colorectal cancer", "setting": "colorectal cancer", "result": "50-70%"}]}
{"compound": "O=C(O)Cc1ccccc1Nc1c(Cl)cccc1Cl", "note": "[diclofenac]", "values": [{"measurement": "Apoptotic bodies in colonic biopsies", "setting": "colonic biopsies", "result": "increased levels of apoptotic bodies"}]}
{"compound": "CN1C(C(=O)Nc2ccccn2)=C(O)c2ccccc2S1(=O)=O", "note": "[piroxicam]", "values": [{"measurement": "COX-2 inhibition", "setting": "COX-2", "result": "strong inhibitory effect on COX-2"}]}
{"compound": "CSc1ccc(/C=C2/C(C)=C(CC(=O)O)c3cc(F)ccc32)cc1", "note": "[sulindac sulfide]", "values": [{"measurement": "Time within which plasma concentration exceeds that of sulindac", "setting": "in vivo, po", "result": "four"}, {"measurement": "Cell cycle inhibition", "setting": "[1]", "result": "induced cell cycle inhibition"}, {"measurement": "Potency in reducing proliferation and inhibiting the cell cycle vs sulindac", "setting": "[2]", "result": "six times more potent than sulindac"}, {"measurement": "COX-2 inhibition", "setting": "COX-2", "result": "potent inhibitor of COX-2"}]}
{"compound": "CC1=C(CC(=O)O)c2cc(F)ccc2/C1=C\\c1ccc([S+](C)[O-])cc1", "note": "(stereo not shown) [sulindac]", "values": [{"measurement": "Time of peak plasma concentration", "setting": "oral tablet", "result": "about two"}, {"measurement": "Colonic mucosal apoptosis", "setting": "colorectal mucosa", "result": "increased levels of colonic mucosal apoptosis"}, {"measurement": "Proliferation", "setting": "colorectal mucosa", "result": "No effects on proliferation"}, {"measurement": "COX-1 inhibition", "setting": "COX-1", "result": "mainly exerts an inhibitory effect on COX-1"}, {"measurement": "Regression of adenomatous polyps", "setting": "sporadic colonic polyps", "result": "no similar regression of adenomatous polyps"}, {"measurement": "Reduction product formed by colonic microflora", "setting": "colonic microflora", "result": "exclusively to sulindac sulfide"}, {"measurement": "Apoptosis", "setting": "[3]", "result": "induction of apoptosis"}, {"measurement": "Cell proliferation or differentiation", "setting": "[3]", "result": "no evidence of cell proliferation or differentiation"}, {"measurement": "Number and size of colonic polyps", "setting": "colonic polyps", "result": "significantly decreased"}, {"measurement": "Regression/progression of sporadic colorectal adenomas", "setting": "[4]", "result": "induced regressions and prevented the progression of sporadic colorectal adenomas"}, {"measurement": "COX-2 inhibition", "setting": "COX-2", "result": "weak inhibitor of COX-2"}]}
